# Values quoted from earlier work in patent publication US20100260859A1 (ELAN PHARMA INTERNATIONAL LIMITED, priority 2009, published 2010).
smiles,measurement,value
"CN1CCN(C2=Nc3cc(Cl)ccc3Nc3ccccc32)CC1 [Clozapine, 8-chloro-11-(4-methylpiperazin-1-yl)-5H-dibenzo[b,e][1,4]diazepine]",established intrinsic solubility of clozapine in water,16 µg/mL
same,solubility in water (in words),very slightly soluble in water
